Laboratory results taken from publication PMC8032764 (Scientific Reports, 2021).
Like-named read-outs stand apart in the source and are kept apart here.

Legend:
Endothelin ETB = system: T1, Endothelin ETB; assay: Cerep binding; design: species or system human; details: 10 μM; [125I]endothelin-1; hum. recomb. (CHO)
T1 construct: purchased Eurofins Cerep

Chemokine CCR1 = system: T2, Chemokine CCR1; assay: Cerep binding; design: species or system human; details: 10 μM; [125I]MIP-1a; hum. recomb. (HEK-293)
T2 construct: purchased Eurofins Cerep

[1] = Pharmacokinetics, single oral dosing, SAD study BP25129; format: in vivo, Human; details: for bioavailability / Tmax / AUC(0-t) / Cmax: human, plasma, tablet, n = 6 male; for Tmax: median, read-out: Tmax (range); for AUC(0-t) / Cmax: ± percent coefficient of variation
Adenosine A3 = system: T3, Adenosine A3; assay: Cerep binding; design: species or system human; details: 10 μM; [125I]AB-MECA; hum. recomb. (HEK-293)
T3 construct: host or cells: HEK-293

Serotonin 5-HT1A = system: T4, Serotonin 5-HT1A; assay: Cerep binding; design: species or system human; details: 10 μM; [3H]8-OH-DPAT; hum. recomb. (HEK-293)
T4 construct: purchased Eurofins Cerep

[2] = system: healthy male and female volunteers; assay: Study WP29402 drug-drug interaction with itraconazole; format: in vivo, human
Text: 3) Study WP29402 Drug-Drug Interaction (DDI) Itraconazole in Healthy Volunteers This was an open-label, three treatment, fixed sequence crossover study to investigate the […]
healthy male and female volunteers (age range 18-60 years; n: 12). As systemic basmisanil exposure was predicted to be higher than exposures achiev ed in previous clinical studies, regular EEG examinations were included and reviewed by a neurologist. Multiple oral doses […]
with the CYP3A inhibitor, itraconazole (200 m g OD).
Baseline EEG assessments were performed prior to the study (resting EEG eyes open/closed, intermittent photic stimulation, hyperventilation). On treatment days (1, 3, 5, 8) […]
hours and resting EEG eyes open/closed w ere performed. […]
administered with itraconazole.

Plasma levels, PTZ test = format: in vivo, rat
Experimental: Following tonic convulsions, rats were immediately euthanized by decapitation. All other rats were euthanized by decapitation at the end of the 30 min observation period. Plasma samples were collected and frozen at − 80 °C for analysis of drug content.
The calibration range was from 1.0 to 5000 ng/mL. After protein precipitation with ethanol, the sample solution was injected onto a Gemini C18 trapping column (2 × 10 mm; Phenomenex, Torrance, CA, USA) and polar endogenous compounds and salts were rinsed off. Analytical separation was performed on an Atlantis T3 column (2.1 × 50 mm) (Waters, Milford, MA, USA), using methanol/water containing 0.1% formic acid as mobile phase. A drug analogue was used as an internal standard.

Adenosine A2A = system: T5, Adenosine A2A; assay: Cerep binding; design: species or system human; details: 10 μM; [3H]CGS 21680; hum. recomb. (HEK-293)
T5 construct: host or cells: HEK-293

Angiotensin AT1 = system: T6, Angiotensin AT1; assay: Cerep binding; design: species or system human; details: 10 μM; [125I][Sar1,Ile8]-AT-II; hum. recomb. (HEK-293)
T6 construct: purchased Eurofins Cerep

Kv channel = assay: Cerep binding; details: 10 μM; [125I]α−dendrotoxin; rat cerebral cortex
[3] = Pharmacokinetics, single intravenous dosing; format: in vivo; details: Wistar, rat, plasma, 4.3 mg/kg i.v., 2 male
[4] = Plasma levels, object retrieval task; format: in vivo, Macaca fascicularis; details: cynomolgus monkey, oral; for concentration at 180 min: read-out: total plasma concentration
Experimental: Twelve cynomolgus macaques were presented with a clear acrylic box with one open side baited with a food treat, as described previously[14],[38]. The test is easy when the open side of the box is directed towards the subject and difficult when the open sides face other directions. […] Compound doses were administered in a pseudorandom order. Administration of dose and behavioral measurements were completed blind. Data were analysed using a one-way repeated measures ANOVA followed, in significant cases, by a post hoc Dunnett’s test. Plasma samples were collected from the same three subjects at each dose group at 3 h post administration. […] The calibration range was from 1.0 to 5000 ng/mL. After protein precipitation with ethanol, the sample solution was injected onto a Gemini C18 trapping column (2 × 10 mm; Phenomenex, Torrance, CA, USA) and polar endogenous compounds and salts were rinsed off. […] A drug analogue was used as an internal standard.

Opioid μ = system: T7, Opioid μ; assay: Cerep binding; design: species or system human; details: 10 μM; [3H]DAMGO; hum. recomb. (HEK-293)
T7 construct: host or cells: HEK-293

[5] = Pharmacokinetics, single intravenous dosing; format: in vivo; details: C57/Bl6, mouse, plasma, 2.0 mg/kg i.v., 2 male
[6] = 240 mg BID with itraconazole 200 mg OD versus alone

## Cc1onc(-c2ccc(F)cc2)c1COc1ccc(C(=O)N2CCS(=O)(=O)CC2)cn1 [basmisanil]
Endothelin ETB
  % Inhibition: -2%
Chemokine CCR1
  % Inhibition: -2%
[1]; 45 mg oral
  bioavailability: ~75%
  Tmax: 3.5 h
  AUC(0-t): 6040 ± 38.7 ng·h/mL
  Cmax: 767 ± 15.4 ng/mL
[1]; 160 mg oral
  bioavailability: ~75%
  Tmax: 4 h
  AUC(0-t): 20300 ng·h/mL
  Cmax: 1860 ± 14.3 ng/mL
[1]; 330 mg oral
  bioavailability: ~75%
  Tmax: 4 h
  AUC(0-t): 30500 ng·h/mL
  Cmax: 2120 ± 24 ng/mL
[1]; single dose 160 mg
  maximum plasma concentration: 1860 ng/mL
[1]; single dose 660 mg
  maximum plasma concentration: 3710 ng/mL
[1]; single dose 1250 mg
  maximum plasma concentration: 4890 ng/mL
Adenosine A3
  % Inhibition: 6%
Serotonin 5-HT1A
  % Inhibition: 0%
[2]; 240 mg BID alone
  maximum plasma concentration: 3510 ng/mL
[2]; 240 mg BID co-administered with itraconazole 200 mg OD
  maximum plasma concentration: 14500 ng/mL
[2]; [6]
  increase in maximum plasma concentration: 312%
  increase in systemic exposure at steady state: 374%
[2]; DDI study, n = 12
  maximum plasma concentration: approximately 14,500 ng/mL
[2]; co-administered with itraconazole
  EEG findings: no epileptiform discharges
Plasma levels, PTZ test; female rats, 30 mg/kg
  free plasma concentration: 2452 nM
Plasma levels, PTZ test; female rats, 100 mg/kg
  free plasma concentration: 5079 nM
Plasma levels, PTZ test; male rats, 100 mg/kg
  free plasma concentration: 1622 nM
Adenosine A2A
  % Inhibition: 9%
Angiotensin AT1
  % Inhibition: 2%
Kv channel
  % Inhibition: -1%
[3]
  half-life: 1.2 h
[3]; read-out: Total CL
  clearance: 54 mL/min/kg
[3]; read-out: Vss
  Vd: 2.9 L/kg
[4]; 1 mg/kg p.o.
  concentration at 180 min: 257 ng/mL
[4]; 3 mg/kg p.o.
  concentration at 180 min: 1020 ng/mL
[4]; 3 mg/kg p.o., read-out: free plasma concentration
  concentration at 3 h: 156 nM
[4]; 10 mg/kg p.o.
  concentration at 180 min: 2260 ng/mL
[4]; 30 mg/kg p.o.
  concentration at 180 min: 2850 ng/mL
Opioid μ
  % Inhibition: 3%
[5]
  half-life: 0.5 h
[5]; read-out: Total CL
  clearance: 37 mL/min/kg
[5]; read-out: Vss
  Vd: 1.3 L/kg
